Patent US20020042079A1, “METHODS AND AGENTS FOR MEASURING AND CONTROLLING MULTIDRUG RESISTANCE” (priority 1994, published 2002)
“Also recorded” adds a separate entry of the source.

Legend:
[1] = system: isolated microsomes of MCF-7/ADR cells; test: In vitro acidification of total microsomal preparation (acridine orange quenching)
Experimental: Acidification of Cellular Microsomes: The acidification of cellular microsomes was assayed spectrophotometrically. Two different approaches were used for assaying acidification: Acidification of the total microsomal preparation using quenching of acridine orange and acidification of the recycling endosomes by monitoring the fluorescence from a microsomal preparation from cells that had previously endocytosed FITC-transferrin.
The homogenate was centrifuged twice for 10 minutes at 3000 g to remove unbroken cells and nuclei. The supernatant was layered over 20 ml of 0.5 M sucrose (20 mM HERES (pH 7.4), 1 mM DTT, 1 mM EDTA, 1×protease inhibitor mix) and 1 ml of 2 M sucrose and centrifuged for one hour at 100,000 g (Beckman Ti60 Rotor). Microsomes are collected at the 0.5 M and 2 M interface.
Acidic vesicles accumulate acridine orange to high concentrations resulting in the self quenching of the dye. This accumulation causes depletion of the acridine orange from the extra-vesicular space, and a decrease of the overall fluorescence of the sample. […] The sample was allowed to equilibrate by stirring for 30 minutes at 25° C. After 5 minutes of recording to establish baseline, 1 mM Tris-ATP was added to begin acidification (100 mM stock, titrated to pH 7.4 with 1 M Tris-base before use).

[2] = system: MCF-7/ADR cells; test: Transport of BODIPY-sphingomyelin from TGN to cell surface; assay type: cell-based, human; details: Tamoxifen 10 μM
Experimental: When accumulated at high concentrations, BODIPY-sphingomyelin undergoes a green to red shift in fluorescence emission.
Cells were fixed by washing two times in cold fixing buffer (1% paraformaldehyde, 0.1 M sodium cacodylate, 0.1 M sucrose, pH 7.2) followed by a 15 minute incubation in fixing buffer on ice, and then washing two times with cold fixing buffer without paraformaldehyde. […] Biophys.

[3] = system: MCF-7adr cells; test: Bodipy-ceramide and Bodipy-lactalbumin labeling of TGN and pericentriolar recycling compartment; assay type: cell-based, human; details: tamoxifen treatment of MCF-7adr cells
Text: Endocytotic pathway (fourth row): To examine internalization, Bodipy-lactalbumin (Bodipy-Lac, Molecular Probes, Eugene, Oreg.) was used as a fluid phase marker.
Conversion of Bodipy-ceramide to Bodipy-sphingomyelin (in cis-Golgi) is associated with the movement of the newly synthesized fluorescent lipid to the trans-Golgi network (TGN). As the Bodipy-sphingomyelin concentration increases within the TGN and secretory vesicles, a long wavelength shift in fluorescence occurs that results in red fluorescent structures (TGN and secretory vesicles) against a green fluorescent background. […] To examine internalization, Bodipy-lactalbumin (Bodipy-Lac, Molecular Probes, Eugene, Oreg.) was used as a fluid phase marker.

[4] = system: MCF-7/ADR cells; test: Transport of BODIPY-transferrin from recycling endosomes to cell surface
[5] = system: fresh liver and kidney tissue from mice; test: In vitro acidification of organelles from fresh tissue; assay type: biochemical
Text: The in vitro acidification assay used purified microsomes that had been resuspended in a salt buffer without additional cytosolic or nuclear components.

[6] = system: MDA-A1 cells; test: Acridine orange labeling of acidic compartments; assay type: cell-based, human; details: 10 μM Tamoxifen, estrogen receptor negative cells
Experimental: (§1) Labeling of Cells with Acridine Orange: To examine intracellular acidic compartments, acridine orange (6 μM in medium from a 10 mM stock in water) was added directly to cells in the Lab-Tek chambers and the cells were incubated for 15 minutes. Cells in the presence of acridine orange were then examined utilizing an excitation at 488 nm and dual emission confocal images were simultaneously recorded using both a 530-30 band pass barrier filter (green fluorescence) and a 605 nm long pass barrier filter (red fluorescence). Optical sections of the fluorescent samples were recorded at 0.5 micron intervals with a 60×oil immersion objective.
There is red fluorescence in punctate cytoplasmic organelles and in a perinuclear region.

[7] = system: CHO cells; test: Acridine orange labeling of acidic compartments; assay type: cell-based, Chinese Hamster; details: 10 μM tamoxifen, thirty minutes
Experimental: as §1
CHO cells are often used for transfection studies with Pgp since endogenous levels of the protein are non-existent, or too low to be measured [Debenham et al., Mol. Cell Biol., 2:881-889 (1982)].

SMILES	acidification of pre-treated microsomes ([1]; Tamoxifen 8 μM, Bafilomycin A1 10 nM, monensin concentration not given)	rate of dissipation of the pre-existing pH gradient ([1]; added 10 minutes after ATP, Bafilomycin A1 100 nM, compared with tamoxifen)	sphingomyelin fluorescence remaining associated with the cells after two hours [2]	time to almost complete dissipation of the pre-existing pH gradient ([1]; 8 μM Tamoxifen added 10 minutes after Tris-ATP) [minutes]	TGN structure (Bodipy-ceramide labeling) [3]	structure of the PRC (bodipy-lactalbumin labeling) [3]	time for intracellular BODIPY-transferrin to decrease to 50% of its steady-state level ([4]; 10 μM tamoxifen) [min]	BODIPY-transferrin remaining with cells after 25 minutes ([4]; Tamoxifen 10 μM)	BODIPY-transferrin remaining with cells after five minutes ([4]; Tamoxifen 10 μM)	effect on in vitro acidification compared with MCF-7/ADR microsomes [5]	red acridine orange fluorescence after Tamoxifen [6]	red acridine orange fluorescence after Tamoxifen ([6]; listed as tamoxifen)	red acridine orange fluorescence after Tamoxifen [7]
CC[C@@]1([C@@H]2O[C@@H]([C@H]3O[C@@](O)(CO)[C@H](C)C[C@@H]3C)C[C@@H]2C)CC[C@H]([C@]2(C)CC[C@]3(C[C@H](O)[C@@H](C)[C@@H]([C@@H](C)[C@@H](OC)[C@H](C)C(=O)O)O3)O2)O1 [Monensin]	inhibited acidification	significantly faster than tamoxifen	–	–	–	–	–	–	–	–	–	–	–
CC/C(=C(\c1ccccc1)c1ccc(OCCN(C)C)cc1)c1ccccc1 [Tamoxifen]	–	–	more than 70%	≤ 5	produces a similar fragmentation of TGN structure	disrupts the structure of the PRC	30	More than 60%	more than 90%	similar	substantial reduction in the red acridine orange fluorescence	substantial decrease in the red acridine orange fluorescence	substantially reduced the red acridine orange fluorescence; also recorded: loss of red-orange fluorescence from the cytoplasm of the CHO cells
